# Entries after “also recorded” stand apart in the source; their conditions may differ. Where a SMILES comes first, the peptide text is derived from it.
# Columns and labels:
# CypA [1] = molecular target: T1, CypA (Homo sapiens, UniProt P62937); assay: Isothermal titration calorimetry of Vpr^75-90 binding to CypA; details: ITC; mean ± S.E of two titrations; read-out: Ka (converted)
# T1 construct: made in house
# Experimental: ITC was performed in a VP-ITC titration calorimeter (MicroCal Inc.). […] The mean of the heat from the last 5 injections was subtracted from the raw data to correct for experimental heat dilution. The binding isotherms were fitted to a one site binding model using the Origin v7 software (OriginLab). Chi-square minimization was performed iteratively to obtain the best-fit parameters.
# CypA [2] = molecular target: T1, CypA; assay: SPR binding of Vpr and Vpr peptides to immobilized CypA; details: for binding to CypA in SPR sensorgrams (in words): peptides 0-8 μM over CM5 chip with 150 RU CypA (Figure 2)
# Experimental: SPR [42-44] measurements were performed at 25°C on a Biacore T100 instrument (Biacore AB, Uppsala, Sweden) equipped with CM5 research-grade sensor chips. CypA was immobilized to 150, 180, 918 and 5003 RU, using standard amine-coupling chemistry. The reference flow cells were treated correspondingly except for CypA immobilization. The synthetic full length Vpr, as well as fragments and mutants thereof, were dissolved at four different concentrations in the running buffer (HBS-EP buffer pH 7.4; 10 mM HEPES, 150 mM NaCl, 3.4 mM EDTA and 0.005% surfacant). The samples were injected over the flow cells at a flow rate of 30 μl/min. Data were collected at 2.5 Hz during 60 s association and 180 s or 240 s dissociation phases, and were automatically corrected for bulk buffer effects and non-specific binding of Vpr peptides to the chip matrix. All SPR data was acquired from two individual series of experiments using four different analyte concentrations with a duplicate injection of one of the individual concentrations.
# Affinity, association and dissociation rate constants were obtained from sensorgrams by the Biacore T100 evaluation software version 2.0.1 in accordance with the global curve fit model. Sensorgram data for the four different concentrations were fitted to several binding models including 1:1 (Langmuir) binding model (A+B ↔ AB), two-state reaction (conformational change) model (A+B ↔ AB ↔ AB*), heterogeneous ligand (HL) model (interaction one: A+B1 ↔ AB1; interaction two: A+B2 ↔ AB2) and bivalent analyte (BA) model (A+B ↔ AB; AB+B↔ABB). Kinetic constants were calculated for the best fitted model.
# T1 sequence (P62937 whole entry): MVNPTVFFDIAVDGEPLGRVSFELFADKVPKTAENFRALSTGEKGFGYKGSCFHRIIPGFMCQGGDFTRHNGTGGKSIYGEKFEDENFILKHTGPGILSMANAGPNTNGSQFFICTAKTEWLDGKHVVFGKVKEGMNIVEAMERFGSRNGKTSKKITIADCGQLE
Compound,binding to CypA in SPR sensorgrams (in words) (CypA [2]),further results
CC[C@H](C)[C@H](NC(=O)[C@H](CCCNC(=N)N)NC(=O)[C@H](CO)NC(=O)[C@H](Cc1c[nH]cn1)NC(=O)[C@H](CCCNC(=N)N)NC(=O)[C@H](CS)NC(=O)CN)C(=O)NCC(=O)N[C@H](C(=O)N[C@H](C(=O)N[C@@H](CCCNC(=N)N)C(=O)N[C@@H](CCC(N)=O)C(=O)N[C@@H](CCCNC(=N)N)C(=O)N[C@@H](CCCNC(=N)N)C(=O)N[C@@H](C)C(=O)N[C@@H](CCCNC(=N)N)C(=O)O)[C@@H](C)O)C(C)C [Vpr^75-90],,Kd (CypA [1]): 0.0769 µM
Vpr^30-40: N-terminal peptide containing the N-terminal binding region of Vpr to CypA (AVRHFPRIWLH),,"binding to CypA in SPR sensorgrams, comparison (in words) (CypA [2]; analyte 1-8 μM, chip with 180 RU CypA (Figure 1B, C)): lower affinity"
CC[C@H](C)[C@H](N)C(=O)NCC(=O)N[C@H](C(=O)N[C@H](C(=O)N[C@@H](CCCNC(=N)N)C(=O)N[C@@H](CCC(N)=O)C(=O)N[C@@H](CCCNC(=N)N)C(=O)N[C@@H](CCCNC(=N)N)C(=O)N[C@@H](C)C(=O)N[C@@H](CCCNC(=N)N)C(=O)O)[C@@H](C)O)C(C)C [Vpr^81-90] (H-IGVTRQRRAR-OH; N-terminus and C-terminus assumed),interacted only weakly,
C[C@H](NC(=O)CNC(=O)[C@H](CC(N)=O)NC(=O)[C@H](CCCNC(=N)N)NC(=O)[C@H](C)NC(=O)[C@H](CCCNC(=N)N)NC(=O)[C@@H](N)CCCNC(=N)N)C(=O)N[C@@H](CO)C(=O)N[C@@H](CCCNC(=N)N)C(=O)N[C@@H](CO)C(=O)O [Vpr^87-96] (H-RRARNGASRS-OH; N-terminus and C-terminus assumed),interacted only weakly,
"CC[C@H](C)[C@H](NC(=O)CNC(=O)[C@@H](NC(=O)[C@H](C)NC(=O)[C@H](CO)NC(=O)[C@H](Cc1c[nH]cn1)NC(=O)[C@H](CCC(N)=O)NC(=O)[C@H](CS)NC(=O)CN)[C@@H](C)CC)C(=O)N[C@H](C(=O)N[C@@H](CCCNC(=N)N)C(=O)N[C@@H](CCC(N)=O)C(=O)N[C@@H](CCCNC(=N)N)C(=O)N[C@@H](CCCNC(=N)N)C(=O)N[C@@H](C)C(=O)N[C@@H](CCCNC(=N)N)C(=O)O)[C@@H](C)CC [Vpr^75-90 (R76Q, V83I, R80A, T84I)] (H-GCQHSAIGIIRQRRAR-OH)",,Kd (CypA [2]): 2.7 ± 1.9 µM
CC[C@H](C)[C@H](NC(=O)[C@H](CCCNC(=N)N)NC(=O)[C@H](CO)NC(=O)[C@H](Cc1c[nH]cn1)NC(=O)[C@H](CCCNC(=N)N)NC(=O)[C@H](CS)NC(=O)CN)C(=O)NCC(=O)N[C@H](C(=O)N[C@H](C(=O)O)[C@@H](C)O)C(C)C [Vpr^75-84] (H-GCRHSRIGVT-OH; N-terminus and C-terminus assumed),interacted only weakly; also recorded: fails to bind,
"CC[C@H](C)[C@H](NC(=O)CNC(=O)[C@@H](NC(=O)[C@H](CCCNC(=N)N)NC(=O)[C@H](CO)NC(=O)[C@H](Cc1c[nH]cn1)NC(=O)[C@H](CCC(N)=O)NC(=O)[C@H](CS)NC(=O)CN)[C@@H](C)CC)C(=O)N[C@H](C(=O)N[C@@H](CCCNC(=N)N)C(=O)N[C@@H](CCC(N)=O)C(=O)N[C@@H](CCCNC(=N)N)C(=O)N[C@@H](CCCNC(=N)N)C(=O)N[C@@H](C)C(=O)N[C@@H](CCCNC(=N)N)C(=O)O)[C@@H](C)CC [Vpr^75-90 (R76Q, V83I, T84I)] (H-GCQHSRIGIIRQRRAR-OH)",,Kd (CypA [2]): 4.7 ± 2.6 µM
CC[C@H](C)[C@H](NC(=O)[C@H](CCCNC(=N)N)NC(=O)[C@H](Cc1ccccc1)NC(=O)[C@H](Cc1c[nH]cn1)NC(=O)[C@@H](NC(=O)[C@@H](N)Cc1ccccc1)[C@@H](C)CC)C(=O)NCC(=O)N[C@@H](CS)C(=O)N[C@@H](CCCNC(=N)N)C(=O)N[C@@H](Cc1c[nH]cn1)C(=O)O [Vpr^69-78] (H-FIHFRIGCRH-OH; N-terminus and C-terminus assumed),interacted only weakly,

# — PMC3269379, “The Host-Pathogen interaction of human cyclophilin A and HIV-1 Vpr requires specific N-terminal and novel C-terminal domains” (BMC Structural Biology, 2011)
